According to US20240246994A1, “Polymorph Of Imidazolidinone Compound, Preparation Method Therefor And Use Thereof” (Betta Pharmaceuticals Co., Ltd., priority 2021, published 2024):

Legend:
[1] = target: PI3Kα (Homo sapiens, UniProt P42336); experiment: PI3Kα kinase assay (ADP-Glo, luminescence); type: biochemical; details: final ATP concentration 10 μM; read-out: IC50 of Compound PI3K α
Description: (§1) PI3Kα, PI3Kβ, PI3Kγ kinases were enzymatically reacted with their substrates ATP and PIP2:3PS, and the amount of the reaction products were determined to reflect the enzymatic activities of PI3Kα, PI3Kβ, PI3Kγ using ADP-Glo reagent and luminescence method (final ATP concentration of 10 μM). The inhibitory activities of Compound 1 of the present invention on PI3Kα, PI3Kβ and PI3Kγ kinases were tested using the above method.
(§2) Reagents: basic kinase buffer (pH 7.5); PI3Kα, PI3Kβ, PI3Kγ enzyme solutions; solution of PIP2:3PS and ATP; and ADP-Glo kit (containing 10 mM of MgCl2).
(§3) Among them, the buffer components are: 50 mM of Hepes (pH 7.2 to pH 7.5), 3 mM of MgCl2, 1 mM of EGTA, 0.03% of CHAPS, 100 mM of NaCl, and 2 mM of DTT;
(§4) Preparation of compound: Compound 1 of the present application was completely dissolved in DMSO and diluted to a specific concentration so that the final concentration of the compound in the incubation system was 1000 nM, 333 nM, 111 nM, 37 nM, 12.4 nM, 4.1 nM, 1.4 nM, 0.46 nM, 0.15 nM and 0.05 nM (PI3Kα); 30,000 nM, 10,000 nM, 3333 nM, 1111 nM, 370 nM, 123 nM, 41 nM, 13.7 nM, 4.6 nM and 1.5 nM (PI3Kβ, PI3Kγ). […]

[2] = target: PI3Kβ (Homo sapiens, UniProt P42338); experiment: PI3Kβ kinase assay (ADP-Glo, luminescence); type: biochemical; details: final ATP concentration 10 μM; read-out: IC50 of Compound PI3K β
Description: as §1, §2, §3, §4

[3] = target: PI3Kγ (Homo sapiens, UniProt P48736); experiment: PI3Kγ kinase assay (ADP-Glo, luminescence); type: biochemical; details: final ATP concentration 10 μM; read-out: IC50 of Compound PI3K γ
Description: as §1, §2, §3, §4

[4] = test system: MCF-7 cells; experiment: Cell proliferation assay (CellTiter Glo), MCF-7; type: cell-based; details: Homo sapiens, MCF7; 120 h incubation; read-out: IC50 of compounds on MCF-7 cells
Description: Method: CellTiter Glo assay method was used to observe the growth inhibitory effect of Compound 1 of the present application on human tumor cells MCF-7 and HGC-27 cultured in vitro.
Assay method: MCF-7 cells were suspended in DMEM medium to form a cell suspension, and the cell concentration was adjusted to 25,000 cells/mL. HGC-27 cells were suspended in RPMI-1640 medium to form a cell suspension, and the cell concentration was adjusted to 5,000 cells/mL. 100 μL of cell suspension was added to a 96-well plate and placed in a CO2 incubator overnight. Compound 1 was completely dissolved in DMSO and 3-fold gradient dilution was performed to obtain a total of 10 concentrations. The 10 concentrations of the compounds to be tested or the DMSO negative control were transferred to the wells containing 100 μL of medium to give final concentrations of the compounds of 30,000 nM, 10,000 nM, 3,333 nM, 1,111 nM, 370 nM, 123 nM, 41 nM, 13.7 nM, and 4.6 nM, respectively. Incubation was performed at 37° C. under 5% CO2 for 96 h for HGC-27 cells and 120 h for MCF-7 cells. Then 100 μL of CellTiter-Glo reagent was added to the above 96-well plate and placed at room temperature for 10 min to stabilize the luminescence signal. The RLU (relative luminescence unit) value was recorded using a VICTOR™ X5 instrument, and then the IC50 value was calculated. […]

[5] = Pressure sensitivity assay (tabletting, XRPD); type: physicochemical; details: pressure 200, 300 and 500 kg/cm^2, 3 min
[6] = Grinding sensitivity assay (XRPD); type: physicochemical; details: manual grinding in a mortar, 1 min
[7] = DVS assay; type: physicochemical; details: 80% RH, 25° C.
Description: A Surface Measurement Systems Dynamic Vapor Sorption Analyzer (model of DVS Resolution) was used with an N2 flow rate: 200 sccm, detection temperature: 25° C., equilibrium time range: 5 min to 360 min, RH gradient: 10% (50% RH to 90% RH, 90% RH to 0% RH to 90% RH), and 5% (90% RH to 95% RH, 95% RH to 90% RH) to obtain dynamic vapor sorption analysis pattern.

[8] = Stress testing (influencing factors), total impurity content; type: physicochemical
[9] = Pharmacokinetic assay in rats, single gavage; type: in vivo; details: rat, plasma, po, male SD rats, 10 mg/kg
Description: Medicament preparation: the control compound, crystal form M of Compound 1 and amorphous form of Compound 2 obtained in Example 1 were weighed and prepared into a 10 mg/mL of solution to be tested in a mixture of 10% of DMSO, 10% of Solutol and 80% of saline; crystal form C of Compound 1 was added into a mixture of 5% of solutol and 95% of 0.5% CMCNa to prepare a 10 mg/mL of solution to be tested.
Assay method: 15 male SD rats with weights: 150 g to 300 g were randomly divided into 5 groups of 3 rats each, and […] of the Example compound was administered by single gavage. The blood was collected through the orbital venous plexus at the designated time points (5 min, 15 min, 30 min, 1 h, 2 h, 4 h, 7 h and 24 h) respectively, and the plasma was separated and stored in a refrigerator at −80° C. for spare use. After precipitation of proteins from the above plasma samples by acetonitrile, the supernatant was extracted and mixed with water at 1:1, and 10 μL of which was taken for LC-MS/MS detection.

[10] = Stability test of crystal form C (influencing factor, accelerated, long-term); type: physicochemical
Source text: The conditions and methods for the stability test of crystal form C of Compound 1 are mainly based on the requirements of “9001 Guidelines for Stability Test of APIs and Pharmaceutical Preparations” of the fourth part general rules of the 2020 edition of the Chinese Pharmacopoeia, as shown in Table 4. [table]

[11] = test system: catalytic subunit of PI3K (α-subunit compared to β-subunit); details: cited from earlier work
[12] = High temperature of 40° C., Day 5
[13] = High temperature of 40° C., Day 30
[14] = High temperature of 60° C., Day 5
[15] = High temperature of 60° C., Day 30

Sequence of PI3Kα (P42336 whole entry): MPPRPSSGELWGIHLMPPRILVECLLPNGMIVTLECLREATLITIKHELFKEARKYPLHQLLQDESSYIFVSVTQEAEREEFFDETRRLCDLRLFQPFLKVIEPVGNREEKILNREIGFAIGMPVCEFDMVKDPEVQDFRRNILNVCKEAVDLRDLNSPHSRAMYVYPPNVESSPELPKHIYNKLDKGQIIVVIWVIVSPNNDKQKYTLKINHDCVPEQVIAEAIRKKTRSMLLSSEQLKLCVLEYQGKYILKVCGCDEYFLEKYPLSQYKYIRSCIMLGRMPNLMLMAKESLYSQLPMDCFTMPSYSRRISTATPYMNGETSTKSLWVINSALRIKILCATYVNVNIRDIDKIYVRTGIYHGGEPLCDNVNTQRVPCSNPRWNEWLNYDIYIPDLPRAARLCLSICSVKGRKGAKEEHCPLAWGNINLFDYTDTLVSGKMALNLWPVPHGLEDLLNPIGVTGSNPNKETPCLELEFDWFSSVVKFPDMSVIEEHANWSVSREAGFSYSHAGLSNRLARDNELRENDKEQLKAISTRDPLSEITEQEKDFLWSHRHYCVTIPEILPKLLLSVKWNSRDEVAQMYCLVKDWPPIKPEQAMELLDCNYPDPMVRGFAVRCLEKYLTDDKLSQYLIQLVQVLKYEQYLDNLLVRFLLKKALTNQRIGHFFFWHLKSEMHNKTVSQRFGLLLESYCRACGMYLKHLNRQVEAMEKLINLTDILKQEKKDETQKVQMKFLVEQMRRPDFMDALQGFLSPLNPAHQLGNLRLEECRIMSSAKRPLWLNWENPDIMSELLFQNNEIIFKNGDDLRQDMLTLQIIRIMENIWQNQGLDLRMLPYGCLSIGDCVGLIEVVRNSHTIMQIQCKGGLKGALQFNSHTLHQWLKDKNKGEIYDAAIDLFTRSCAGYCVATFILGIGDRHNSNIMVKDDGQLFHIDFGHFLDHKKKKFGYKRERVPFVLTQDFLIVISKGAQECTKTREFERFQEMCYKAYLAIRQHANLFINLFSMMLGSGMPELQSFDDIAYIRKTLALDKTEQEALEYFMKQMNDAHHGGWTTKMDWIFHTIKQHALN
Sequence of PI3Kα (P27986 whole entry partner): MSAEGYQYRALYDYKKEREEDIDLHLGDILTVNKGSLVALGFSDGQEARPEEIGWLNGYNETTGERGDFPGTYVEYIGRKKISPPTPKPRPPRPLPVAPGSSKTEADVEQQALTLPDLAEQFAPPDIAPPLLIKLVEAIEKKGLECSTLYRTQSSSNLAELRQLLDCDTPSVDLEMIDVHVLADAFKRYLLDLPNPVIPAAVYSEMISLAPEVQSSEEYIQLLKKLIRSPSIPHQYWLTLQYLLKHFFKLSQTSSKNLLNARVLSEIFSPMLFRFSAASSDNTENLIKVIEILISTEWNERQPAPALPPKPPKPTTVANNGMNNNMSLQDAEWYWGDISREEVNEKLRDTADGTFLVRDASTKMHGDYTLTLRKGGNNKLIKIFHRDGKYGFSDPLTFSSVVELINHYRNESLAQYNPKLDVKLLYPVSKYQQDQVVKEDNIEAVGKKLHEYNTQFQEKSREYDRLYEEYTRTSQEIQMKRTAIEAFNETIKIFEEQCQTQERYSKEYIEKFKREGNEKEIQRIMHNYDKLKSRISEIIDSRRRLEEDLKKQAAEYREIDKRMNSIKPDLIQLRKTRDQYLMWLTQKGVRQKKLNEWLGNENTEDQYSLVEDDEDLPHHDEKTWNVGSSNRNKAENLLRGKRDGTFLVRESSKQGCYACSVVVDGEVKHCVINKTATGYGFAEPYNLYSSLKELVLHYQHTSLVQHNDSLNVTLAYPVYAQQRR
Sequence of PI3Kγ (P48736 whole entry): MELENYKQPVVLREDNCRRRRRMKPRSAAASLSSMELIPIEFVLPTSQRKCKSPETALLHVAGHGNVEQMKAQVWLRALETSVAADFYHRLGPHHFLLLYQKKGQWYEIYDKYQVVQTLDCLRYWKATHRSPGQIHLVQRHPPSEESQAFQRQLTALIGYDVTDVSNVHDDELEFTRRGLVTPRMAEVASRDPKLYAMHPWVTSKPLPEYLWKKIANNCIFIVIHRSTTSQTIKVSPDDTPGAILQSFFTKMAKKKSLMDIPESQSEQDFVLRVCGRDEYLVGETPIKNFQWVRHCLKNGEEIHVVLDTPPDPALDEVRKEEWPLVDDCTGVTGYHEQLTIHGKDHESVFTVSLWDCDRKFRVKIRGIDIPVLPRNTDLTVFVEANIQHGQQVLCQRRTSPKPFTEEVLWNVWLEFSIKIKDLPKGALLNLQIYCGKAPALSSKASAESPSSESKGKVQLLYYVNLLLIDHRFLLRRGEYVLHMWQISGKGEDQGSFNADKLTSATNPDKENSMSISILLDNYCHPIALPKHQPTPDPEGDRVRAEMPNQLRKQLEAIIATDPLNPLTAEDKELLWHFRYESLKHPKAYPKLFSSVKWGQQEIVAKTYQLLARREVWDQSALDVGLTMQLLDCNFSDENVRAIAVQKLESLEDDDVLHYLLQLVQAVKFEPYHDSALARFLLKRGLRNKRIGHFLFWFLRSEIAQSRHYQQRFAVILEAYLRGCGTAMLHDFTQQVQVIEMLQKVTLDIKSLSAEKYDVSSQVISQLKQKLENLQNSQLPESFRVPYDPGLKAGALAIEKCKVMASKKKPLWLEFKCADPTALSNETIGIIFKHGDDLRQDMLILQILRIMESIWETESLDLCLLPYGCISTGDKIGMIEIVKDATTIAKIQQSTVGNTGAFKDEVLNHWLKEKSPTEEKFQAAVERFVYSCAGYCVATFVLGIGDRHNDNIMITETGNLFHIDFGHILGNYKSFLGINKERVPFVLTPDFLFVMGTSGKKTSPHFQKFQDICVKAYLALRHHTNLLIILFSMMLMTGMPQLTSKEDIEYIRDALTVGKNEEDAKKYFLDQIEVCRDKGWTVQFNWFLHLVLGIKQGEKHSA
Sequence of PI3Kβ (P42338 whole entry): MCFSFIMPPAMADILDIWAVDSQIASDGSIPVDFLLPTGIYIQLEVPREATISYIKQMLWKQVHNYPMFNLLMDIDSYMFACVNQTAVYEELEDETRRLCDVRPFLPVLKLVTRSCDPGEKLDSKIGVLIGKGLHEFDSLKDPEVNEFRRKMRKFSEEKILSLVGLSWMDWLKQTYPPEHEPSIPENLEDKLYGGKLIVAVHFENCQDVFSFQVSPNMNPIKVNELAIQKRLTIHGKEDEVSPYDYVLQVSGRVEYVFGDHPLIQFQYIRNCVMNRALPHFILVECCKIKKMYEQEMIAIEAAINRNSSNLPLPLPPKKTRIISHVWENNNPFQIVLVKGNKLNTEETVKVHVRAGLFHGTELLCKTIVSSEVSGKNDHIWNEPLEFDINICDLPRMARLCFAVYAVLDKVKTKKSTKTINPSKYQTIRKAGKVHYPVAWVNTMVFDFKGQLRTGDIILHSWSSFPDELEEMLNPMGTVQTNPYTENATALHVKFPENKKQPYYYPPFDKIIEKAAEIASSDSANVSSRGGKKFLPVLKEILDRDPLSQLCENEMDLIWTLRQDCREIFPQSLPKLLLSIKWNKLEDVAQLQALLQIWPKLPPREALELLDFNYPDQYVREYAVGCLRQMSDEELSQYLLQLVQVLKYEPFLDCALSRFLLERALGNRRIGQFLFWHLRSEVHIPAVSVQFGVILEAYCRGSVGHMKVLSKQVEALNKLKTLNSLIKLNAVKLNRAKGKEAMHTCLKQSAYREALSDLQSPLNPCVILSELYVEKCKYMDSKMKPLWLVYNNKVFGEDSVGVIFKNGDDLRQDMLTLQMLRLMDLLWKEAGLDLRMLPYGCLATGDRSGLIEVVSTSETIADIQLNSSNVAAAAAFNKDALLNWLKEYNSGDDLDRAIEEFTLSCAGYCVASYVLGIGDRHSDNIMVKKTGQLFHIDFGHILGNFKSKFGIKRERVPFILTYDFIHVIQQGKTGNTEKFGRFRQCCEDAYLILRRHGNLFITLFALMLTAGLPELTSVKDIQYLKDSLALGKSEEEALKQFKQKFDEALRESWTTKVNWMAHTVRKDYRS
Sequence of PI3Kβ (P27986 whole entry partner): as the sequence (P27986 whole entry partner) above

| Compound | Result: crystal form after tabletting [5] | XRPD pattern after grinding [6] | mass gain (DVS) [7] | Total impurity content of the related material ([8]; Day 0) | Total impurity content of the related material ([8]; High humidity of 75%, Day 5) | Total impurity content of the related material ([8]; High humidity of 75%, Day 30) | Total impurity content of the related material ([8]; High humidity of 92.5%, Day 5) | Total impurity content of the related material ([8]; High humidity of 92.5%, Day 30) | Total impurity content of the related material [8, 12] | Total impurity content of the related material [8, 13] | Total impurity content of the related material [8, 14] | Total impurity content of the related material [8, 15] | further results |
| --- | --- | --- | --- | --- | --- | --- | --- | --- | --- | --- | --- | --- | --- |
| CC(C)[C@H]1C(=O)N(C2CC2)C(=O)N1c1cn2c(n1)-c1ccc(N3CCC[C@H]3C(N)=O)cc1OCC2 [Compound 1, (S)-1-(2-((S)-3-cyclopropyl-5-isopropyl-2,4-dioxoimidazolidin-1-yl)-5,6-dihydrobenzo[f]imidazo[1,2-d][1,4]oxazepin-9-yl)pyrrolidine-2-carboxamide] | – | – | – | – | – | – | – | – | – | – | – | – | IC50 [1]: ≤ 5 nM; IC50 [2]: > 600 nM; IC50 [3]: > 600 nM; IC50 [4]: 47 nM |
| CC(C)[C@H]1C(=O)N(C2CC2)C(=O)N1c1cn2c(n1)-c1ccc(N3CCC[C@H]3C(N)=O)cc1OCC2 [Crystal Form B-1, (S)-1-(2-((S)-3-cyclopropyl-5-isopropyl-2,4-dioxoimidazolidin-1-yl)-5,6-dihydrobenzo[f]imidazo[1,2-d][1,4]oxazepin-9-yl)pyrrolidine-2-carboxamide] | Form B-1 | remained consistent with the original patterns | 1.9% | 0.24% | 0.25% | 0.29% | 0.23% | 0.24% | 0.26% | 0.34% | 0.38% | 0.43% | – |
| CC(C)[C@H]1C(=O)N(C2CC2)C(=O)N1c1cn2c(n1)-c1ccc(N3CCC[C@H]3C(N)=O)cc1OCC2 [Crystal Form C, (S)-1-(2-((S)-3-cyclopropyl-5-isopropyl-2,4-dioxoimidazolidin-1-yl)-5,6-dihydrobenzo[f]imidazo[1,2-d][1,4]oxazepin-9-yl)pyrrolidine-2-carboxamide] | Form C | remained consistent with the original patterns | 0.7% | 0.07% | 0.07% | 0.07% | 0.07% | 0.07% | 0.07% | 0.10% | 0.08% | 0.10% | AUC [9]: 36600 ng·h/mL; Cmax [9]: 3700 ng/mL; change of testing indexes compared with day 0, long-term test ([10]; 25° C. ± 2° C., RH60% ± 5%, 6 months): no significant change; change of testing indexes compared with day 0, accelerated test ([10]; 40° C. ± 2° C., RH75%, 6 months): no significant change; change in characteristics, content, crystal form and isomer compared with day 0 ([10]; uncovered, high temperature (40° C., 60° C.) or high humidity (75%, 92.5%), 30 days): no significant change |
| CC(C)[C@H]1C(=O)N(C2CC2)C(=O)N1c1cn2c(n1)-c1ccc(N3CCC[C@H]3C(N)=O)cc1OCC2 [Crystal Form M, (S)-1-(2-((S)-3-cyclopropyl-5-isopropyl-2,4-dioxoimidazolidin-1-yl)-5,6-dihydrobenzo[f]imidazo[1,2-d][1,4]oxazepin-9-yl)pyrrolidine-2-carboxamide] | – | – | – | 0.12% | 0.39% | 0.61% | 0.42% | 0.61% | 0.55% | 0.53% | 0.70% | 0.64% | – |
| Cc1nc(-c2cn3c(n2)-c2ccc(-c4cnn(C(C)(C)C(N)=O)c4)cc2OCC3)n(C(C)C)n1 [Taselisib] | – | – | – | – | – | – | – | – | – | – | – | – | selectivity for the α-subunit compared to the β-subunit [11]: 31 fold |
